Assays:
ItypOR49 = biological target: T1, ItypOR49 (Ips typographus, UniProt A0A7L8XYT4); assay: calcium fluorescence dose-response in TREx/HEK293 cells; format: cell-based
T1 construct: gene OR49; full-length, N-terminal V5 tag; with ItypOrco
T1 sequence (A0A7L8XYT4 1-406): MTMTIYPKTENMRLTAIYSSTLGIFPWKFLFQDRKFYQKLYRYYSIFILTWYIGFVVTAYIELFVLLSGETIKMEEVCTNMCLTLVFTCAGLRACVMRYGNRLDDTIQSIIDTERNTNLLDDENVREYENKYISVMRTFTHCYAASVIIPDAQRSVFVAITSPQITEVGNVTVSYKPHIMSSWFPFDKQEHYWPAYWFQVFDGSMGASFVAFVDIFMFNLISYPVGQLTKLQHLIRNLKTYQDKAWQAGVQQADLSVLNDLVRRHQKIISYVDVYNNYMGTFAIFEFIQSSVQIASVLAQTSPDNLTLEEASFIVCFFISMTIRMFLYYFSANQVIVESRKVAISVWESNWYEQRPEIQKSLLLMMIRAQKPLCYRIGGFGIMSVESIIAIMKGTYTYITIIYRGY
T1 sequence (A0A7L8XYY7 1-480 partner): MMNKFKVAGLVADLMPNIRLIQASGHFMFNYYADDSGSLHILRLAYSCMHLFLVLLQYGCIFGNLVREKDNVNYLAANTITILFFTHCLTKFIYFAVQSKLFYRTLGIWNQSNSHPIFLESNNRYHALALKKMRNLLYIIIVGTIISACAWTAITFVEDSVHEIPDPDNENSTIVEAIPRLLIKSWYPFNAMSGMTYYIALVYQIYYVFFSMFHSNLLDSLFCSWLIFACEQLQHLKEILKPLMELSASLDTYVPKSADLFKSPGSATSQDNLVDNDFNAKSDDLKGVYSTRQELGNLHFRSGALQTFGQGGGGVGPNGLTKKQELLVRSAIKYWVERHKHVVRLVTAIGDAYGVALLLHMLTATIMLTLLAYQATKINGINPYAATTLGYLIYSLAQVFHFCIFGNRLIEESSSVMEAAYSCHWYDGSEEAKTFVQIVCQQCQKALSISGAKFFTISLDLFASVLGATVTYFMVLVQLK

ItypOR46 [1] = biological target: T2, ItypOR46 (Ips typographus, UniProt A0A7L8XZ66); assay: two-electrode voltage clamp dose-response in Xenopus oocytes (secondary response; not significant in HEK cells); format: cell-based
T2 construct: with ItypOrco
T2 sequence (A0A7L8XZ66 1-408): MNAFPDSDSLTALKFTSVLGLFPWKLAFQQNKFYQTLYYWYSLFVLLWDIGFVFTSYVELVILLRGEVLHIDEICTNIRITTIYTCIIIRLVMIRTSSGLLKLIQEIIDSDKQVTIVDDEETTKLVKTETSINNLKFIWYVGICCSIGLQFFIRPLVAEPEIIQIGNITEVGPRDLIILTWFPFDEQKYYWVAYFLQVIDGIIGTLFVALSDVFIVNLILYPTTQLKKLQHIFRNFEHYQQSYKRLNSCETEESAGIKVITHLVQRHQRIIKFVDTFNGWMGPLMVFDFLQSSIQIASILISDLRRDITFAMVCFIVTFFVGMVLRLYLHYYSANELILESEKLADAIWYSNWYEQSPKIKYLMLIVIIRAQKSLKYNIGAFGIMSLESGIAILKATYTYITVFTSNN

ItypOR46 [2] = tested on: T3, ItypOR46; assay: calcium fluorescence assay in TREx/HEK293 cells; also Xenopus oocyte two-electrode voltage clamp; site-directed mutagenesis; format: cell-based, Ips typographus
T3 construct: gene OR46; full-length, N-terminal V5 tag; with ItypOrco

ItypOrco = biological target: T4, ItypOrco (Ips typographus, UniProt A0A7L8XYY7); assay: calcium fluorescence dose-response in TREx/HEK293 cells expressing only ItypOrco; format: cell-based
T4 construct: full-length, N-terminal c-Myc tag
T4 sequence (A0A7L8XYY7 1-480): T1 sequence (A0A7L8XYY7 1-480 partner)

## C=CC(=C)C[C@@H](O)C=C(C)C [(R)-(−)-ipsdienol]
ItypOR49
  EC50: 9.47 µM
ItypOR46 [1]
  two-electrode voltage clamp dose-response in Xenopus oocytes (secondary response): secondary response of ItypOR46 to racemic ipsdienol is mainly triggered by the (R)-(−)-enantiomer

## C=CC(=C)C[C@@H](O)CC(C)C [(S)-(−)-ipsenol]
ItypOR46 [2]
  EC50: 1.98 µM

## CCc1ccc(NC(=O)CSc2nnc(-c3cccnc3)n2CC)cc1 [VUAA1]
ItypOrco
  EC50: 24.5 µM
